# Results reported in US8211922B2, “1-methylnicotinamide derivatives and formulations for treatment of lipoprotein abnormalities” (Cortria Corporation, priority 2005, dated 2012).
# Values joined by “and” are separate entries in the source; they are usually repeats but may differ in a detail not shown here. Equal values may be shown once.
# What was measured:
# [1] = test system: patients on permanent therapy with simvastatin; assay: Safety of co-administration of MNA with statins; format: in vivo, human
# Method: A group of 10 patients (4 females and 6 males, ages 38-79) on permanent therapy with simvastatin (10-20 mg/day) were selected for the study. In addition to simvastatin each patient received MNA in daily dose of 90 mg/day for six weeks. The clinical chemistry parameters were monitored during three doctor's visits: two weeks before, just before and after six weeks of MNA administration.
# [2] = test system: rats fed a hypertriglyceridemic diet; assay: Rat model of hypertriglyceridemia (high-fructose diet), plasma triglyceride; format: in vivo; conditions: Wistar rats, AIN93 diet with 60% fructose 8 weeks; 100 mg/kg MNA in drinking water for the last 4 weeks; FIG. 1
# Method: Rats fed a high-fructose diet develop hypertriglyceridemia, insulin resistance and a mild degree of hypertension abnormalities that mimic metabolic syndrome in humans (Boehm and Claudi-Boehm, Scand J Clin Lab Invest Suppl. 2005; 240:3-13). […] One group was fed a control diet (basal AIN93) for 8 weeks, the second was fed an AIN93 diet supplemented with 60% fructose for 8 weeks, and the third was fed an AIN93 diet supplemented with 60% fructose that was additionally treated with 100 mg/kg of MNA for the last 4 weeks (after hypertriglicerydemia fully develops) and was given to drinking water. At the end of experiments rats were anesthetized, and blood was withdrawn and anticoagulated. Triglyceride level in plasma was measured by standard spectophotometric technique using commercially available kits.
# [3] = Binding to Sepharose immobilized heparin; conditions: as a cationic molecule
# dyslipidemic patients = assay: Anti-atherogenic effect of MNA after long term use (13 months), plasma lipids in patients; format: in vivo, human; conditions: for HDL % / TG % / TG/HDL % / Total Cholesterol % / LDL %: change vs time 0
# Method: The anti-atherogenic effect of MNA was investigated in 2 dyslipidemic patients. The enrollment criteria was: high level of TG (≧250 mg/dl) and/or high level of TC (≧200 mg/dl). The patients were treated with MNA for 13 months. The MNA was administered orally, two times a day (50 mg MNA) after meal.
# The plasma levels of TC, TG, and HDL were measured at baseline and during the therapy. The level of LDL was measured in those cases where it was possible (due to high TG level).
# [4] = test system: dyslipidemic and cardiologic patients; assay: Anti-atherogenic effect of MNA after short-term use (2 weeks), plasma lipids in patients; format: in vivo, human; conditions: for HDL change: after 2 weeks therapy
# Method: The anti-atherogenic effect of MNA was investigated in […] dyslipidemic and cardiologic patients. The enrollment criteria was: high level of TG (˜250 mg/dl) and/or high level of total cholesterol (TC) (≧200 mg/dl). The mean age of the patients was 57.5 (range 37-81 years). The enrolled patients were divided into two groups: dyslipidemic patients (4 patients) and dyslipidemic patients after acute coronary failure (myocardial infarction) (12 patients). The patients were treated with MNA for 2 weeks. The MNA was administered orally, three times a day, one capsule (30 mg MNA) after meal. The 16 patients have finished clinical examination.
# The plasma levels of TC, TG, and HDL were measured at baseline and after 2 weeks of therapy. The level of LDL was measured in those cases where it was possible (due to high TG level).
# Patient nos. 1-4 were dyslipidemic. Patient nos. 5-16 were dyslipidemic patients after acute coronary failure (myocardial infarction).
# Chemical stability = format: physicochemical
# PGI2 = PGI2 release
# various cell lines = assay: Cytoprotection of cell lines; format: cell-based
# [5] = Toxicity and tolerability
# [6] = MNA 90 mg/day for six weeks co-administered with simvastatin (10-20 mg/day), 10 patients
# [7] = 2 dyslipidemic patients, 50 mg MNA orally two times a day, 13 months
# [8] = 30 mg MNA orally three times a day, after 2 weeks, individual patients
# [9] = 30 mg MNA orally three times a day, after 2 weeks, individual patients nos. 1-16
# [10] = change visit 2 vs visit 1, 30 mg MNA orally three times a day, 2 weeks, individual patients nos. 1-16
# [11] = change visit 2 vs visit 1, 2 weeks, individual patients
# [12] = mean of 16 patients, 30 mg MNA orally three times a day, after 2 weeks
# [13] = mean of 16 patients, after 2 weeks
# [14] = mean of 16 patients, change visit 2 vs visit 1, 2 weeks
substance,measurement,setting,value
1-methylnicotinamide chloride [MNA],"Clinical chemistry parameters (liver enzymes AST and ALT, creatinine, urea, glucose and homocysteine)",[1]; [6],not changed within the measurements accuracy
same,Negative effects on patient examination,[1]; [6],no negative effects were observed
same,Adverse synergistic effects,[1]; MNA co-administration with statins,does not result in any adverse synergistic effects
same,Triglyceride level in plasma,[2],lowers triglyceride levels
same,Binding to Sepharose immobilized heparin,[3],bound
same,TC level,dyslipidemic patients; [7],reduced significantly
same,TG level,dyslipidemic patients; [7],reduced significantly
same,HDL levels,"dyslipidemic patients; 2 dyslipidemic patients, after only a few months of therapy",increase
same,TG/HDL ratio,"dyslipidemic patients; 2 dyslipidemic patients, long term use",reduction
same,TG,"dyslipidemic patients; Patient 1, 50 mg MNA orally two times a day, 1.5 months",218 mg/dL
same,TG,"dyslipidemic patients; Patient 1, 50 mg MNA orally two times a day, 6 months",255 mg/dL
same,TG,"dyslipidemic patients; Patient 1, 50 mg MNA orally two times a day, 12 months",315 mg/dL
same,HDL,"dyslipidemic patients; Patient 1, 1.5 months",28.0 mg/dL
same,LDL,"dyslipidemic patients; Patient 1, 1.5 months",81.4 mg/dL
same,TG/HDL,"dyslipidemic patients; Patient 1, 1.5 months",7.79
same,Total Cholesterol,"dyslipidemic patients; Patient 1, 1.5 months",153 mg/dL
same,HDL,"dyslipidemic patients; Patient 1, 6 months",38.6 mg/dL
same,LDL,"dyslipidemic patients; Patient 1, 6 months",87.0 mg/dL
same,TG/HDL,"dyslipidemic patients; Patient 1, 6 months",6.61
same,Total Cholesterol,"dyslipidemic patients; Patient 1, 6 months",177 mg/dL
same,HDL,"dyslipidemic patients; Patient 1, 12 months",48.1 mg/dL
same,LDL,"dyslipidemic patients; Patient 1, 12 months",118.0 mg/dL
same,TG/HDL,"dyslipidemic patients; Patient 1, 12 months",6.55
same,Total Cholesterol,"dyslipidemic patients; Patient 1, 12 months",229 mg/dL
same,HDL %,"dyslipidemic patients; Patient 1, 1.5 months",−8.79%
same,TG %,"dyslipidemic patients; Patient 1, 1.5 months",−77.39%
same,TG/HDL %,"dyslipidemic patients; Patient 1, 1.5 months",−75.21%
same,Total Cholesterol %,"dyslipidemic patients; Patient 1, 1.5 months",−48.66%
same,HDL %,"dyslipidemic patients; Patient 1, 6 months",25.73%
same,TG %,"dyslipidemic patients; Patient 1, 6 months",−73.55%
same,TG/HDL %,"dyslipidemic patients; Patient 1, 6 months",−78.96%
same,Total Cholesterol %,"dyslipidemic patients; Patient 1, 6 months",−40.60%
same,HDL %,"dyslipidemic patients; Patient 1, 12 months",56.68%
same,TG %,"dyslipidemic patients; Patient 1, 12 months",−67.32%
same,TG/HDL %,"dyslipidemic patients; Patient 1, 12 months",−79.14%
same,Total Cholesterol %,"dyslipidemic patients; Patient 1, 12 months",−23.15%
same,TG,"dyslipidemic patients; Patient 2, 50 mg MNA orally two times a day, 7 months",269 mg/dL
same,TG,"dyslipidemic patients; Patient 2, 50 mg MNA orally two times a day, 13 months",160 mg/dL
same,HDL,"dyslipidemic patients; Patient 2, 7 months",79.0 mg/dL
same,LDL,"dyslipidemic patients; Patient 2, 7 months",128.0 mg/dL
same,TG/HDL,"dyslipidemic patients; Patient 2, 7 months",3.41
same,Total Cholesterol,"dyslipidemic patients; Patient 2, 7 months",261 mg/dL
same,HDL,"dyslipidemic patients; Patient 2, 13 months",70.8 mg/dL
same,LDL,"dyslipidemic patients; Patient 2, 13 months",106.8 mg/dL
same,TG/HDL,"dyslipidemic patients; Patient 2, 13 months",2.26
same,Total Cholesterol,"dyslipidemic patients; Patient 2, 13 months",210 mg/dL
same,HDL %,"dyslipidemic patients; Patient 2, 7 months",79.55%
same,LDL %,"dyslipidemic patients; Patient 2, 7 months",−53.11%
same,TG %,"dyslipidemic patients; Patient 2, 7 months",−10.93%
same,TG/HDL %,"dyslipidemic patients; Patient 2, 7 months",−50.39%
same,Total Cholesterol %,"dyslipidemic patients; Patient 2, 7 months",−28.49%
same,HDL %,"dyslipidemic patients; Patient 2, 13 months",60.91%
same,LDL %,"dyslipidemic patients; Patient 2, 13 months",−60.88%
same,TG %,"dyslipidemic patients; Patient 2, 13 months",−47.02%
same,TG/HDL %,"dyslipidemic patients; Patient 2, 13 months",−67.07%
same,Total Cholesterol %,"dyslipidemic patients; Patient 2, 13 months",−42.47%
same,Glucose visit 2,[4]; [8],152 mg/dl and 81 mg/dl and 89 mg/dl (2×) and 90 mg/dl and 101 mg/dl and 129 mg/dl and 96 mg/dl (2×) and 82 mg/dl and 113 mg/dl and 128 mg/dl and 97 mg/dl and 111 mg/dl
same,LDL visit 2,[4]; [8],162 mg/dL and 171 mg/dL and 114 mg/dL and 82 mg/dL and 121 mg/dL and 111 mg/dL and 81 mg/dL and 149 mg/dL and 178 mg/dL and 148 mg/dL
same,Uric Acid visit 2,[4]; [8],7.2 mg/dL and 4.4 mg/dL and 8.9 mg/dL and 9.6 mg/dL and 6.6 mg/dL and 5.7 mg/dL and 5.3 mg/dL and 5.31 mg/dL and 5.26 mg/dL and 5.8 mg/dL and 7.33 mg/dL
same,HDL visit 2,[4]; [9],40 mg/dl and 41 mg/dl (2×) and 59 mg/dl and 31 mg/dl and 45 mg/dl (3×) and 46 mg/dl and 37 mg/dl and 36 mg/dl and 29 mg/dl and 38 mg/dl and 67 mg/dl and 72 mg/dl and 42 mg/dl
same,Total Cholesterol visit 2,[4]; [9],251 mg/dL and 260 mg/dL and 208 mg/dL and 155 mg/dL and 130 mg/dL and 203 mg/dL and 194 mg/dL and 159 mg/dL and 253 mg/dL and 271 mg/dL and 229 mg/dL and 146 mg/dL and 280 mg/dL and 188 mg/dL and 243 mg/dL and 231 mg/dL
same,TG/HDL ratio,[4]; after 2 weeks therapy (baseline 9.60),5.25
same,HDL change,[4]; group of dyslipidemic patients,substantial increase
same,HDL change,[4]; group of dyslipidemic patients after acute coronary failure (myocardial infarction),not observed
same,LDL %,"[4]; change visit 2 vs visit 1, 30 mg MNA orally three times a day, 2 weeks, individual patients",18.25% and 23.91% and 107.27% and −40.58% and 0.83% and −23.97% and −35.71% and 14.62% and 78.00% and 12.98%
same,HDL %,[4]; [10],11.11% and 7.89% and −1.67% and −8.82% and −25.45% and −18.18% and −8.00% and −15.91% and −14.29% (2×) and 9.76% and 0.00% and −22.45% and 31.37% and 36.36% and 71.43%
same,Total Cholesterol %,[4]; [10],5.91% and −5.11% and 8.33% and −38.74% and −43.97% and −17.14% and −24.51% and −31.17% and −4.17% and −12.58% and 3.62% and −39.67% and −6.98% and 2.73% and −17.06% and −4.94%
same,Glucose %,[4]; [11],−8.98% and 2.53% and 7.23% and −25.62% and 5.21% and 17.27% and −19.33% and 0.00% and 9.09% and 18.95% and 8.54% and −10.49% and −1.02% and 4.72%
same,Uric Acid %,[4]; [11],−16.28% and 2.33% and −38.62% and 37.14% and 6.45% and 0.00% and −23.19% and 0.95% and −2.59% and −1.69% and 21.96%
same,TG/HDL %,"[4]; change visit 2 vs visit 1, 2 weeks, individual patients nos. 1-16",−32.29% and −54.61% and −54.01% and −43.95% and −41.63% and −36.79% and −33.19% and −19.29% and −14.21% and −60.02% and −15.08% and −68.96% and −26.10% and −59.00% and −84.18% and −3.72%
same,"TG visit 2, Mean Value",[4]; [12],216 mg/dL and 216.31 mg/dL
same,"Total Cholesterol visit 2, Mean Value",[4]; [12],212 mg/dL and 212.56 mg/dL
same,"HDL visit 2, Mean Value",[4]; [13],44.63 mg/dL
same,"TG/HDL visit 2, Mean Value",[4]; [13],5.25
same,"HDL %, Mean Value",[4]; [14],0.85%
same,"TG %, Mean Value",[4]; [14],−47.2% and −47.18%
same,"TG/HDL %, Mean Value",[4]; [14],−45.32%
same,"Total Cholesterol %, Mean Value",[4]; [14],−14.50%
same,"LDL visit 2, Mean Value","[4]; mean of patients with LDL measured, after 2 weeks",131.70 mg/dL
same,"LDL %, Mean Value","[4]; mean of patients with LDL measured, change visit 2 vs visit 1, 2 weeks",7.86%
same,Chemical stability,Chemical stability,chemically very stable
same,PGI2 release,PGI2,releases PGI2
same,Cytoprotection,various cell lines,cytoprotective
same,Tolerability,[5],very well tolerated
same,Toxicity,[5],non-toxic
